Results published in patent EP4810052A2, “HCRHR2 SELECTIVE POLYPEPTIDES” (Gubra A/S, priority 2023, dated 2026).
pEC50: −log10 of the molar value. Where two headings read alike, the source gives them in different places. Starred links: 1 amine or outer side, 2 acyl side, 3 side chain; linkers in the order of their positions; H or OH if unused. Non-standard residues stand in square brackets, D forms with d. Residues, ends and D or L forms follow the SMILES beside them. Groups on a side chain read outwards from the residue. *: point of attachment. C20 diacid = O=C(O)CCCCCCCCCCCCCCCCCCC(=O)*; γGlu = O=C(O)[C@H](CCC(=O)[*:2])N[*:1]; Nle = CCCC[C@H](N)C(=O)O; AEEA = NCCOCCOCC(=O)O; Aib = CC(C)(N)C(=O)O

Assays:
hCRHR2 = biological target: T1, hCRHR2 (Homo sapiens, UniProt Q13324); experiment: HTRF cAMP assay, determination of hCRHR2 potency (peptide libraries 5 conc., purified peptides 11 conc.); format: cell-based; conditions: for pEC50: read-out: hCRHR2 EC50
T1 sequence (Q13324 1-411): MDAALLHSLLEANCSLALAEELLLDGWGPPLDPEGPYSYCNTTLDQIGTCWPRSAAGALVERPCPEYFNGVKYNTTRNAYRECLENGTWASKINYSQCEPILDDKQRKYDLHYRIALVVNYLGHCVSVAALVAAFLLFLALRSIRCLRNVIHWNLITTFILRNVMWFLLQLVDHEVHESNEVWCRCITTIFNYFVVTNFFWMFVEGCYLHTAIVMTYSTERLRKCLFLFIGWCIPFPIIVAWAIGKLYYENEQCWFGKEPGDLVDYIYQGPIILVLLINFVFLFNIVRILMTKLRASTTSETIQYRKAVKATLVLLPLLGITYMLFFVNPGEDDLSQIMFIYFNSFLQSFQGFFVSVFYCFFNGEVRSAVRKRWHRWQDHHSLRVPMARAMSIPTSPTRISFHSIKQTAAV
How it was run: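 Cells: CHO-K1/hCRHR2 stable clone, suspension, freshly thawed. Readout: competitive TR-FRET, anti-cAMP cryptate vs cAMP-d2. Analysis: sigmoid variable-slope nonlinear regression → EC50.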

hCRHR1 = biological target: T2, hCRHR1 (Homo sapiens, UniProt P34998); experiment: HTRF cAMP assay, determination of hCRHR1 potency (peptide libraries 5 conc., purified peptides 11 conc.); format: cell-based; conditions: read-out: hCRHR1 EC50
T2 sequence (P34998 24-415): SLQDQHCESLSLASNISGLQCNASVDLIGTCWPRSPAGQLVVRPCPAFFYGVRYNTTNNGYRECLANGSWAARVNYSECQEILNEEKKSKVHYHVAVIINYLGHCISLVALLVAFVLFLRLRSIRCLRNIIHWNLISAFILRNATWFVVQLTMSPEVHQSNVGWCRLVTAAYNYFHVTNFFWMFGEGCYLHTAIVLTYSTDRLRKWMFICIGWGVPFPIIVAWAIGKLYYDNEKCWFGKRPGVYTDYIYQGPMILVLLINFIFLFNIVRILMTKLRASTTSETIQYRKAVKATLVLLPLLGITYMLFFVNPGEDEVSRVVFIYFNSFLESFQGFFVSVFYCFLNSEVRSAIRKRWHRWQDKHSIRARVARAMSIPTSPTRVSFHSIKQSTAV
How it was run: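 Cellular cAMP was read by time-resolved FRET between d2-labelled cAMP and cryptate anti-cAMP antibody. The cells were freshly thawed suspension CHO-K1 cells stably expressing human CRHR1.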

[1] = Thioflavin T fibril formation assay of purified peptides; format: physicochemical; parameters: key: Amyloid fibril formation detected by an increase in ThT fluorescence was denoted with "Yes"; samples without increasing ThT fluorescence hence not forming amyloid fibrils were denoted "No"
How it was run: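 Fibril formation read as rising ThT emission at 480 nm (450 nm excitation), 4 µM ThT, over 96 h at 40°C with alternating 5-min rest and 700 rpm shaking cycles, in triplicate. Samples were 200 µM compound in 50 mM phosphate at various pH values, or co-formulated at 200 µM in semaglutide product at pH 7.4.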

[2] = Chemical stability of purified peptides (RP-UHPLC main peak purity loss); format: physicochemical
How it was run: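 Purity loss is the drop in RP-UHPLC main-peak area fraction (215 nm detection, C8 column at 50 °C) from time zero to day 14 and/or day 28 at 40 °C. Samples held roughly 1.0 mg/ml peptide in 50 mM phosphate, pH 7.5, with other pH targets also tested.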

PK in rats = format: in vivo; parameters: T½ / MRT: unit not given here; conditions: Rat
Procedure: Lean male Sprague Dawley rats (RJHan:SD) were obtained from JanVier (JanVier Labs, France) at 7 weeks of age. The animals were pair housed until randomization under a 12/12 h dark-light cycle, light off at 3 PM. Room temperature was controlled to 22°C ± 1°C, with 60 % ± 20% humidity.
Animals had ad libitum access to regular rodent chow (Altromin 1324, Brogaarden, Denmark) and tap water.
After 2 weeks of acclimatization, the animals were single housed and randomized into treatment groups (n = 3 per group) based on body weight on study day -3. On study day 1, animals were dosed 50 nmol/kg IV and SC in combination of two peptides. Plasma samples were collected for PK analysis at times 0.17, 1, 3, 6, 24, 30, 48, 72 and 96 hours post dosing. Plasma samples were analyzed using LC-MSMS and PK parameters were estimated by Non-Compartmental Analysis (NCA).

[3] = pH 7.5
Procedure: Solubility was tested in the following vehicles: 100 mM phosphate buffer facilitating a target pH of 6.5, 7.0, and 7.5. Samples were directly dissolved in Mini-UniPrep Syringeless Filter 0.45 µm unit (Whatman). For the desired concentration, such as a concentration of 4000 µM (approximately 20 mg/mL), 1600 nmol peptide was dissolved in 400 µL vehicle. Samples were incubated for at least 1 h at room temperature on a rocking table. The pH was measured and adjusted. Samples were left on the rocking table for an additional hour before a second pH measurement and adjustment. Visual inspection was performed and noted before the filter was pushed. The concentration of peptide in the filtrate was determined using CAD (Charged Aerosol Detection), double determination was done for each sample. The measured concentration was reported in µM. Furthermore, the pH of the filtrate was measured and reported. Peptides with a measured concentration within +/-20% of target concentration are considered fully soluble.
Compounds were dissolved to a nominal concentration of 4000 µM and analysed as described above. Samples with phenol contained 5.0 mg/ml phenol.

[4] = Dynamic Light Scattering (DLS) of peptide oligomerisation/particle formation; format: physicochemical; conditions: average of three replica
Procedure: Samples were prepared by dissolving 800 nmol of each peptide in 400 µl 50 mM phosphate pH 8.0 to a concentration of 2000 µM (ca 10 mg/ml). After fully dissolution for 2 hours on a rocking table, samples were adjusted to pH 7.5 and filtrated through a 0.2 µm Whatman Anotop filter. Comparators were commercially available liraglutide drug product (Victoza®, Novo Nordisk) pH 8.2, and an aliquot of this drug product adjusted to pH 6.7. These samples were filtrated through a 0.02 µm Whatman Anotop filter.
Samples were pipetted as triplicate of 30 µl to an Aurora 384 well microtiter plate, which was centrifuged for 2 minutes at 2200 rpm and then sealed with a Thermo sealing tape 235307. DLS measurements were done in a Wyatt DynaPro platereader III with the following parameters:
The microtiter plate was incubated in a Grant-bio Thermo Shaker PHMP-4 at 40°C with 700 rpm continuous shaking before subsequent DLS measurements. Data analysis was done using Wyatt Dynamics software ver. 7.10.1.21.
Samples were prepared and measured as described in procedure. The hydrodynamic radii (Rh) and associated polydispersity (PD) resulting from cumulant analysis (assuming one species) are shown in the Table 8 as averages of three replica. T0 indicates the measurement at time zero after sample preparation; T5 indicates the measurements of five days of incubation as described above.

[5] = purified peptides, CHO-K1 cells stably expressing hCRHR2, cAMP HTRF
[6] = purified peptides, CHO-K1 cells stably expressing hCRHR1, cAMP HTRF
[7] = pH 7.5, 40°C, 14 days, first value of cell
[8] = pH 7.5, 40°C, 28 days, second value of cell
[9] = T0, time zero after sample preparation
[10] = T5, five days incubation at 40°C with continuous shaking

Row | Compound | Selectivity ratio (hCRHR1/ hCRHR2) (hCRHR2; hCRHR1-EC50/hCRHR2-EC50) | pEC50 (hCRHR2; [5]) | pEC50 (hCRHR1; [6]) | Fibrillation (pH 7.5) ([1]; pH 7.5, ThT assay) | Chemical stability at pH 7.5 after 14 days at 40°C (% degradation) [2, 7] | Chemical stability at pH 7.5 after 28 days at 40°C (% degradation) [2, 8] | MRT (PK in rats) | T½ (PK in rats) | Solubility pH 7.5, target conc. =10 mg/mL (measured mg/mL) [3] | PD (%) [4, 9] | Rh (nm) [4, 9] | PD (%) [4, 10] | Rh (nm) [4, 10] | Selectivity ratio (hCRHR1/ hCRHR2) (hCRHR2; Table 5) | pEC50 (hCRHR2; Table 5, purified peptides) | pEC50 (hCRHR1; Table 5, purified peptides) | Fibrillation (pH 7.5) ([1]; pH 7.5) | Chemical stability at pH 7.5 after 14 days at 40°C (% degradation) ([2]; pH 7.5, 14 days, 40°C) | Chemical stability at pH 7.5 after 28 days at 40°C (% degradation) ([2]; pH 7.5, 28 days, 40°C)
1 | CC[C@H](C)[C@H](N)C(=O)N[C@H](C(=O)N[C@@H](CC(C)C)C(=O)N[C@@H](CO)C(=O)N[C@@H](CC(C)C)C(=O)N[C@@H](CC(=O)O)C(=O)N[C@H](C(=O)N1CCC[C@H]1C(=O)N[C@H](C(=O)NCC(=O)N[C@@H](CC(C)C)C(=O)N[C@@H](CC(C)C)C(=O)N[C@@H](CCC(N)=O)C(=O)N[C@H](C(=O)N[C@@H](CC(C)C)C(=O)N[C@@H](CC(C)C)C(=O)N[C@@H](CCC(=O)O)C(=O)N[C@@H](CCC(N)=O)C(=O)N[C@@H](C)C(=O)N[C@@H](CCCNC(=N)N)C(=O)N[C@@H](C)C(=O)N[C@@H](CCCNC(=N)N)C(=O)N[C@@H](C)C(=O)N[C@@H](C)C(=O)N[C@@H](CCCNC(=N)N)C(=O)N[C@@H](CCC(=O)O)C(=O)N[C@@H](CCC(N)=O)C(=O)N[C@@H](C)C(=O)N[C@@H](CCCCNC(=O)COCCOCCNC(=O)COCCOCCNC(=O)CC[C@H](NC(=O)CC[C@H](NC(=O)CCCCCCCCCCCCCCCCCCC(=O)O)C(=O)O)C(=O)O)C(=O)N[C@H](C(=O)N[C@@H](CC(N)=O)C(=O)N[C@H](C(=O)N[C@@H](CCC(=O)O)C(=O)N[C@H](C(=O)N[C@@H](CC(C)C)C(=O)N[C@@H](C)C(=O)N[C@@H](CCC(=O)O)C(=O)N[C@H](C(N)=O)C(C)C)[C@@H](C)CC)C(C)C)[C@@H](C)O)[C@@H](C)CC)[C@@H](C)CC)C(C)C)C(C)C [SEQ ID NO: 14] (H-IVLSLDVPIGLLQILLEQARARAAREQAK([AEEA-AEEA-γGlu-γGlu-C20 diacid])TNVEILAEV-NH2) | > 1000 | 8.30 | < 5.30 | No | -0.3% | -1.2% | 6.1 | 5.1 | 9.2 mg/mL |  |  |  |  |  |  |  |  |  | 
2 | CC[C@H](C)[C@H](N)C(=O)N[C@H](C(=O)N[C@@H](CC(C)C)C(=O)N[C@@H](CO)C(=O)N[C@@H](CC(C)C)C(=O)N[C@@H](CC(=O)O)C(=O)N[C@H](C(=O)N1CCC[C@H]1C(=O)N[C@H](C(=O)NCC(=O)N[C@@H](CC(C)C)C(=O)N[C@@H](CC(C)C)C(=O)N[C@@H](CCC(N)=O)C(=O)N[C@H](C(=O)N[C@@H](CC(C)C)C(=O)N[C@@H](CC(C)C)C(=O)N[C@@H](CCC(=O)O)C(=O)N[C@@H](CCC(N)=O)C(=O)N[C@@H](C)C(=O)N[C@@H](CCCNC(=N)N)C(=O)N[C@@H](C)C(=O)N[C@@H](CCCNC(=N)N)C(=O)N[C@@H](C)C(=O)N[C@@H](C)C(=O)N[C@@H](CCCNC(=N)N)C(=O)N[C@@H](CCC(=O)O)C(=O)N[C@@H](CCC(N)=O)C(=O)N[C@@H](C)C(=O)N[C@@H](CCCCNC(=O)COCCOCCNC(=O)COCCOCCNC(=O)CC[C@H](NC(=O)CC[C@H](NC(=O)CCCCCCCCCCCCCCCCCCC(=O)O)C(=O)O)C(=O)O)C(=O)N[C@H](C(=O)N[C@@H](CC(N)=O)C(=O)NC(C)(C)C(=O)N[C@@H](CCC(=O)O)C(=O)N[C@H](C(=O)N[C@@H](CC(C)C)C(=O)N[C@@H](C)C(=O)N[C@@H](CCC(=O)O)C(=O)N[C@H](C(N)=O)C(C)C)[C@@H](C)CC)[C@@H](C)O)[C@@H](C)CC)[C@@H](C)CC)C(C)C)C(C)C [SEQ ID NO: 15] (H-IVLSLDVPIGLLQILLEQARARAAREQAK([AEEA-AEEA-γGlu-γGlu-C20 diacid])TN[Aib]EILAEV-NH2) | >2174 | 8.64 | < 5.30 | No | -1.0% | -1.2% | 8 | 7.7 | 9.8 mg/mL |  |  |  |  |  |  |  |  |  | 
3 | Liraglutide pH 8.2 |  |  |  |  |  |  |  |  |  | 1.4% | 2.1 nm | 3.8% | 2.1 nm |  |  |  |  |  | 
4 | CCCC[C@H](NC(=O)[C@@H](NC(=O)[C@H](CCC(=O)O)NC(=O)C(C)(C)NC(=O)[C@H](CC(N)=O)NC(=O)[C@@H](NC(=O)[C@H](CCCCNC(=O)COCCOCCNC(=O)COCCOCCNC(=O)CC[C@H](NC(=O)CC[C@H](NC(=O)CCCCCCCCCCCCCCCCCCC(=O)O)C(=O)O)C(=O)O)NC(=O)[C@H](C)NC(=O)[C@H](CCC(N)=O)NC(=O)[C@H](CCC(=O)O)NC(=O)[C@H](CCCNC(=N)N)NC(=O)[C@H](C)NC(=O)[C@H](C)NC(=O)[C@H](CCCNC(=N)N)NC(=O)[C@H](C)NC(=O)[C@H](CCCNC(=N)N)NC(=O)[C@H](C)NC(=O)[C@H](CCC(N)=O)NC(=O)[C@H](CO)NC(=O)[C@H](CC(C)C)NC(=O)[C@H](CC(C)C)NC(=O)[C@@H](NC(=O)[C@H](CCC(N)=O)NC(=O)[C@H](CC(C)C)NC(=O)[C@H](CC(C)C)NC(=O)CNC(=O)[C@@H](NC(=O)[C@@H]1CCCN1C(=O)[C@@H](NC(=O)[C@H](CC(=O)O)NC(=O)[C@H](CC(C)C)NC(=O)[C@H](CO)NC(=O)[C@H](CC(C)C)NC(=O)[C@@H](NC(=O)[C@@H](N)[C@@H](C)CC)C(C)C)C(C)C)[C@@H](C)CC)[C@@H](C)CC)[C@@H](C)O)[C@@H](C)CC)C(=O)N[C@@H](C)C(=O)N[C@@H](CCC(=O)O)C(=O)N[C@H](C(N)=O)C(C)C [compound 234] (H-IVLSLDVPIGLLQILLSQARARAAREQAK([AEEA-AEEA-γGlu-γGlu-C20 diacid])TN[Aib]EI[Nle]AEV-NH2) |  |  |  |  |  |  | 5.1 | 4.1 | 11 mg/mL |  |  |  |  | >6250 | 9.10 | < 5.30 | No | -0.43% | -1.1%
5 | liraglutide |  |  |  |  |  |  |  |  |  | 6.0% | 2.5 nm | Multimodal | 5.6 nm |  |  |  |  |  | 
